Experimental data as given in the supplement of paper PMC10307832.

Key:
Assay in all cases: relative viability (nuclei count vs DMSO), 5 days (fraction); higher = more cells survive
[1] = compound: C=CC(=O)N1CCC[C@@H](n2nc(-c3ccc(Oc4ccccc4)cc3)c3c(N)ncnc32)C1 [Ibrutinib] + CC(=O)c1c(C)c2cnc(Nc3ccc(N4CCNCC4)cn3)nc2n(C2CCCC2)c1=O [Palbociclib] (partner 0.5 µM)
Method in brief: (§1)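 For relative viability, nuclei counts in treated wells were divided by those in vehicle wells. Lung cancer cell lines had been pin-tool dosed in 1536-well plates the day after seeding and cultured for 5 days, then fixed and stained in one step (final 0.05% Triton X-100, 1% formaldehyde, 1 ug/ml Hoechst) and imaged at 4×. Doses were one drug alone or a fixed anchor-drug dose plus five library-drug doses (not always all listed) in √10 steps, and values are duplicate-plate medians.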

[2] = compound: C=CC(=O)N1CCC[C@@H](n2nc(-c3ccc(Oc4ccccc4)cc3)c3c(N)ncnc32)C1 [Ibrutinib] + COc1cc2c(Oc3ccc(NC(=O)C4(C(=O)Nc5ccc(F)cc5)CC4)cc3F)ccnc2cc1OCCCN1CCOCC1 [Foretinib] (partner 0.25 µM)
Method in brief: as §1

[3] = compound: C=CCc1cccc(/C=N/NC(=O)CN2CCN(Cc3ccccc3)CC2)c1O [PAC-1] + CC(=O)Nc1cccc(-n2c(=O)n(C3CC3)c(=O)c3c(Nc4ccc(I)cc4F)n(C)c(=O)c(C)c32)c1 [Trametinib] (partner 0.02 µM)
Method in brief: as §1

[4] = compound: C=CC(=O)N1CCC[C@@H](n2nc(-c3ccc(Oc4ccccc4)cc3)c3c(N)ncnc32)C1 [Ibrutinib] + CCNC(=O)c1noc(-c2cc(C(C)C)c(O)cc2O)c1-c1ccc(CN2CCOCC2)cc1 [Luminespib] (partner 0.01 µM)
Method in brief: as §1

With SK-MES-1 the relative viability ([1]; first compound 0.005 µM) was 0.337, the relative viability ([1]; first compound 0.01581 µM) was 0.324 and the relative viability ([1]; first compound 0.05 µM) was 0.382. For the same cell line, the relative viability ([1]; first compound 0.1581 µM) was 0.366, the relative viability ([1]; first compound 0.5 µM) was 0.245 and the relative viability ([2]; first compound 0.005 µM) was 1.03. It also gave a relative viability ([2]; first compound 0.01581 µM) of 0.884, a relative viability ([2]; first compound 0.05 µM) of 0.841 and a relative viability ([2]; first compound 0.1581 µM) of 0.989. For the same cell line, the relative viability ([2]; first compound 0.5 µM) was 0.582, the relative viability ([3]; first compound 0.02 µM) was 0.498 and the relative viability ([3]; first compound 0.06325 µM) was 0.529. For the same cell line, the relative viability ([3]; first compound 0.2 µM) was 0.543, the relative viability ([3]; first compound 2 µM) was 0.622 and the relative viability ([4]; first compound 0.005 µM) was 0.619. For the same cell line, the relative viability ([4]; first compound 0.01581 µM) was 0.66, the relative viability ([4]; first compound 0.05 µM) was 0.77 and the relative viability ([4]; first compound 0.1581 µM) was 0.842. For the same cell line, the relative viability ([4]; first compound 0.5 µM) was 0.443.
